Source: patent US5968791A, “Plant lysophosphatidic acid acyltransferases” (Calgene, Inc., priority 1995, dated 1999)

What was measured:
coconut LPAAT [1] = molecular target: T1, coconut LPAAT (Cocos nucifera, UniProt Q42670); assay: Acyl-CoA specificity of coconut LPAAT expressed in E. coli (pCGN5505), membrane fractions; format: biochemical; set-up: the SalI/BamHI fragment of pCGN5504 containing the entire coconut LPAAT encoding region; made in house; host or cells: E. coli BL21(DE3), membrane fractions; details: acceptor 12:0-LPA
T1 sequence (Q42670 1-308): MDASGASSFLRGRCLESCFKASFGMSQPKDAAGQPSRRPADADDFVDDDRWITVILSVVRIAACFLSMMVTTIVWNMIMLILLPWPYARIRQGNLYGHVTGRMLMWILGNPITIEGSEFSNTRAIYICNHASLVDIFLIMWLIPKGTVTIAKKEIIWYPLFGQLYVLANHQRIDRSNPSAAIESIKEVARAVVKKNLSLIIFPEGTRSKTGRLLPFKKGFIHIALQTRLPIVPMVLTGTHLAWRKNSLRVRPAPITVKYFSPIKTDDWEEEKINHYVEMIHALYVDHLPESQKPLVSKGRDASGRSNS
Procedure: The samples are centrifuged at 12,000 g for 15 minutes. The resulting supernatant fractions are centrifuged for two hours at 134,000 g, and the pelleted membranes suspended in 50 mM HEPES, 200 mM NaCl, 20% (w/v) glycerol, 5 mM β-mercaptoethanol, pH 7.5. Membrane fractions are assayed for acyl-CoA substrate specificities with 12:0-LPA and various acyl-CoA species as described in Example 1. Membrane preparations from cultures of E. coli and from immature coconut endosperm are combined with soybean phospholipids and diluted in 1M NaCl in Buffer A to simulate the pre-assay conditions of the solubilized enzyme.

coconut LPAAT [2] = molecular target: T1, coconut LPAAT; assay: LPAAT activity assay, coconut P2 membrane preparation; format: biochemical; set-up: white endosperm tissue lining the inside of the endocarp can be dissected and collected; from tissue; host or cells: immature coconut endosperm, P2 membrane fraction; details: P2 membrane preparation; acyl-CoA donor varied, acceptor 12:0-LPA
Procedure: To assay for LPAAT activity, the sample is incubated with lysophosphatidic acid (LPA) and acyl-coenzyme A (acyl-CoA) substrates in buffered solution. The acyl substituents of the two substrates are chosen to correspond with the specificity of the enzyme being measured. For example, to measure activity of an LPAAT having preference for medium-chain substrates, lauroyl-LPA (lauroyl-lysophosphatidic acid) and lauroyl-CoA may be used, to measure activity of an LPAAT preferring longer-chain acyl groups, oleoyl-LPA and oleoyl-CoA may be used, to measure activity of an LPAAT preferring very-long chain substrate, erucyl-LPA and erucyl-CoA may be used, and so on, depending upon the type of LPAAT to be tested. The acyl group of one substrate is radioactively labeled in order to detect the product formed. In the examples which follow the acyl substituent of the acyl-CoA substrate is radiolabeled with ^14 C in the carboxyl group. LPAAT activity results in transfer of this acyl group from the acyl-CoA "donor" substrate to the LPA "acceptor" substrate, converting the latter into the product, phosphatidic acid (PA). LPAAT activity is measured as the amount of radioactive product formed in a given assay time. The PA product is radioactive as a result of the transferred radiolabeled acyl group at the central carbon atom of the molecule, and the quantity of PA formed may be determined by measuring radioactivity of the PA fraction. For this measurement, the PA is first separated from the acyl-CoA substrate by solvent partitioning, or by thin-layer chromatography (TLC).
20 μl of the sample to be assayed for LPAAT activity is mixed with 217.5 μl of an assay ingredient mixture in a 4-ml, screw-cap vial. […] The incubation takes place in a water bath at 30° C., for 20-30 minutes.
To stop the assay, 0.25 ml of 1M KCl in 0.2M H3 PO4 is added to the vial. At this point, 40 μl BSA (bovine serum albumin, fraction V) at 1 mg/ml are added, followed by 0.75 ml of a solution of 67 μg/ml unlabeled PA (acting as a "carrier" to facilitate partitioning) in chloroform/methanol (2:1, v/v). The chain lengths of the PA acyl groups are chosen to correspond to those used in the assay substrates. Upon thorough mixing of these components the radiolabeled PA product of the LPAAT reaction partitions into the organic phase and away from the unreacted acyl-CoA and LPA. The vial is centrifuged briefly at low speed to facilitate the separation of organic (lower) and aqueous (upper) phases. The aqueous phase is then removed and discarded. The total radioactivity extracted into the organic phase is determined by liquid scintillation counting; a 100 μl sample of the organic phase is transferred to a 20 ml scintillation vial and allowed to dry, and scintillation fluid (3-5 ml) is added to the vial. The radioactivity of the sample, after subtraction of the "minus-enzyme" or "minus-LPA" radioactivities, is taken as an approximate indication of the amount of PA formed in the LPAAT-catalyzed reaction and therefore of LPAAT activity.
A more accurate estimation of the LPAAT activity may be obtained by separating the PA product from these contaminants by TLC. The remaining organic phase is applied to a silica TLC plate. Ascending chromatography is carried out for 50 minutes, using the solvent mixture chloroform/pyridine/88% formic acid (50:30:7, v/v). After the plate has dried, the distribution of radioactivity is visualized and quantitated using an AMBIS radioanalytic imaging system (AMBIS Systems Inc., San Diego, Calif.). From prior application of standard lipid components the Rf of the PA is known. The radioactivity associated with the PA spot is expressed as a percentage of the total radioactivity of the assay sample loaded on the plate. This ratio provides an indication of the proportion of the scintillation counts which represent the PA product, and may be used to correct the counts to obtain the total PA radioactivity formed in the assay. […]

| Compound | utilization by E. coli expressed coconut LPAAT (coconut LPAAT [1]) | LPAAT Activity from Coconut (coconut LPAAT [2]) |
| --- | --- | --- |
| CCCCCCCC(=O)SCCNC(=O)CCNC(=O)[C@H](O)C(C)(C)COP(=O)(O)OP(=O)(O)OC[C@H]1O[C@@H](n2cnc3c(N)ncnc32)[C@H](O)[C@@H]1OP(=O)(O)O [8:0] | some minor activity detectable | 6 pmol PA formed/30 min assay |
| CCCCCCCCCC(=O)SCCNC(=O)CCNC(=O)[C@H](O)C(C)(C)COP(=O)(O)OP(=O)(O)OC[C@H]1O[C@@H](n2cnc3c(N)ncnc32)[C@H](O)[C@@H]1OP(=O)(O)O [10:0] | most active | 43 pmol PA formed/30 min assay |
| CCCCCCCCCCCCCC(=O)SCCNC(=O)CCNC(=O)[C@H](O)C(C)(C)COP(=O)(O)OP(=O)(O)OC[C@H]1O[C@@H](n2cnc3c(N)ncnc32)[C@H](O)[C@@H]1OP(=O)(O)O [14:0] | most active | 61 pmol PA formed/30 min assay |
| CCCCCCCCCCCCCCCC(=O)SCCNC(=O)CCNC(=O)[C@H](O)C(C)(C)COP(=O)(O)OP(=O)(O)OC[C@H]1O[C@@H](n2cnc3c(N)ncnc32)[C@H](O)[C@@H]1OP(=O)(O)O [16:0] | – | 21 pmol PA formed/30 min assay |
| CCCCCCCC/C=C\CCCCCCCC(=O)SCCNC(=O)CCNC(=O)[C@H](O)C(C)(C)COP(=O)(O)OP(=O)(O)OC[C@H]1O[C@@H](n2cnc3c(N)ncnc32)[C@H](O)[C@@H]1OP(=O)(O)O [18:1, oleoyl-CoA] | – | 9 pmol PA formed/30 min assay |
| CCCCCCCCCCCC(=O)SCCNC(=O)CCNC(=O)[C@H](O)C(C)(C)COP(=O)(O)OP(=O)(O)OC[C@H]1O[C@@H](n2cnc3c(N)ncnc32)[C@H](O)[C@@H]1OP(=O)(O)O [12:0, lauroyl-CoA] | most active | 238 pmol PA formed/30 min assay |
